Assays:
Toxicity (Irwin's test) = assay type: in vivo
Protocol: Progressive doses of the compound to be tested are administered intraperitoneally to groups of three mice until the lethal dose is reached (dose which causes the death of two animals out of three within 48 hours).

[1] = system: effects of scopolamine on the band from 6.4 to 9.6 Hz in the EEG; test: Inhibition of the effects of scopolamine on the electroencephalogram (EEG); assay type: in vivo, male albino Sprague-Dawley rats; design: inhibition: dose or concentration left out as unconfirmed; details: Rattus norvegicus, ip; read-out: Inhibition (percentage of reduction in the increase in the intensity of the band from 6.4 to 9.6 Hz)
Protocol: Male albino Sprague-Dawley SPF rats (160 to 200 g) are used in this test. When the animals are 3 months old, 5 cortical electrodes are implanted permanently, aseptically and under a general anesthesia: one inert electrode, one left and one right frontal electrode, and one left and one right occipital electrode (P. ETEVENON, loc.cit.). The test is carried out when the animals are about 15 months old. In the meantime, the animals are kept in individual cages. They are given water and food ad libitum and are subjected to a regular daily cycle comprising a period of darkness between 6 o'clock in the evening and 6 o'clock in the morning. At the same time, the animals are progressively acclimatized to the cages of the sound-proof cabin which they will subsequently occupy for recording of the electroencephalograms, as well as to the experimental conditions, by intraperitoneal administration of placebo. The products are administered immediately before the EEG is recorded. The rats are divided into groups of 8 animals and 16 samples of the EEG spectra are recorded over 5 seconds (two EEG spectra per animal). The spectra obtained are then analyzed by computer (rapid Fourier transform), which enables the average of the 16 measurements performed to be determined for each group and the overall intensity of the EEG spectrum and the distribution of this intensity (in %) in the various frequency bands to be deduced for each animal. This operation (recording of the spectra) is repeated 9 times (total

SMILES	Lethal dose (death of two animals out of three within 48 hours) (Toxicity (Irwin's test); mice, intraperitoneal) [mg/kg]	inhibition [1] [%]	Lethal dose (death of two animals out of three within 48 hours) (Toxicity (Irwin's test); mouse, in vivo, ip) [mg/kg]
CCCc1nc(NCC2(O)CCCCC2)nc(N2CCOCC2)n1 [Compound 18]	1007	–	–
CCCc1nc(NCCOC(C)=O)nc(N2CCOCC2)n1 [Compound 37, 2-[[2-(acetoxy)ethyl]amino]-4-morpholino-6-propyl-1,3,5-triazine]	928	53.3	–
CCCc1nc(NC[C@H](C)O)nc(N2CCOCC2)n1 [Compound 16, (S)-3-[(4-morpholino-6-propyl-1,3,5-triazin-2-yl)amino]-2-propanol]	844	–	–
CCCc1nc(N2CCOCC2)nc(N(C)C(=O)c2ccc(OC)c(OC)c2)n1 [Compound 35]	401	–	–
CCCc1nc(N2CCOCC2)nc(N(C)C(=O)c2ccccc2)n1.Cl [Compound 27, N-methyl-N-(4-morpholino-6-propyl-1,3,5-triazin-2-yl)-benzamide hydrochloride]	1133	93.8	–
CCCc1nc(NC(=O)N(C)C)nc(N2CCOCC2)n1 [Compound 41, N,N-Dimethyl-N'-(4-morpholino-6-propyl-1,3.5-triazin-2-yl)-urea]	294	–	–
CCCc1nc(NC(CC)CO)nc(N2CCOCC2)n1 (centres unmarked) [Compound 7]	–	50	886
CCCc1nc(NCCOC)nc(N2CCOCC2)n1 [Compound 10, 2-[(2-methoxyethyl)amino]-4-morpholino-6-propyl-1,3,5-triazine]	844	–	–
CCCc1nc(NCCOC(=O)c2ccccc2)nc(N2CCOCC2)n1 [Compound 39]	> 1114	–	–
CCCc1nc(N2CCOCC2)nc(N(C)C(C)=O)n1 [Compound 25a]	–	46.7	838
CCCc1nc(NC(=O)c2ccc(C)cc2)nc(N2CCOCC2)n1 [Compound 33]	1132	–	–
CCCc1nc(NC(=O)c2ccc(C)c(C)c2)nc(N2CCOCC2)n1 [Compound 36]	1174	–	–
CCCc1nc(N2CCOCC2)nc(N(C)C(=O)c2ccc(Cl)cc2)n1 [Compound 30]	1125	–	–
CCCc1nc(NC(C)=O)nc(N2CCOCC2)n1	905	–	–
CCCc1nc(NC(=O)Cc2ccccc2)nc(N2CCOCC2)n1 [Compound 23]	> 1024	–	–
CCCc1nc(N(C)CCO)nc(N2CCOCC2)n1 [Compound 9]	–	53.3	844
CCCc1nc(N2CCOCC2)nc(N(CCOC(C)=O)C(C)=O)n1 [Compound 43, N-[2-(Acetoxy)ethyl]-N-(4-morpholino-6-propyl-1,3,5-triazin-2-yl)-acetamide]	351	77.8	–
CCCc1nc(NCCOC(=O)C(C)C)nc(N2CCOCC2)n1 [Compound 38]	> 1012	–	–
CCCc1nc(NC(=O)C(C)C)nc(N2CCOCC2)n1 [Compound 24]	880	–	–
CCCc1nc(NC(C)(C)CO)nc(N2CCOCC2)n1 [Compound 8]	886	–	–
CCCc1nc(NC(=O)Oc2ccccc2)nc(N2CCOCC2)n1 [Compound 28, phenyl (4-morpholino-6-propyl-1,3,5-triazin-2-yl)carbamate]	> 1030	–	–
CCCc1nc(N2CCOCC2)nc(N(C)C(=O)C(C)C)n1 [Compound 26]	–	55.6	922
CCCc1nc(NCCCCO)nc(N2CCOCC2)n1 [Compound 4]	886	–	–

SMILES	Lethal dose (death of two animals out of three within 48 hours) (Toxicity (Irwin's test); mice, intraperitoneal) [mg/kg]	inhibition [1] [%]	Lethal dose (death of two animals out of three within 48 hours) (Toxicity (Irwin's test); mouse, in vivo, ip) [mg/kg]
CCCc1nc(N2CCOCC2)nc(N2CCCC2CO)n1 (centres unmarked) [Compound 19]	1031	–	–
CCCc1nc(NC(C)(CO)CO)nc(N2CCOCC2)n1 [Compound 13]	934	–	–
CCCc1nc(NC(C)=O)nc(N2CCOCC2)n1 [Compound 21a, N-(4-Morpholino-6-propyl-1,3,5-triazin-2-yl)-acetamide]	996	100	–
CCCc1nc(NCCO)nc(N2CCOCC2)n1 [Compound 1, 2-[(4-morpholino-6-propyl-1,3,5-triazin-2-yl)amino]-ethanol]	802	52	–
CCCc1nc(NCC(C)O)nc(N2CCOCC2)n1 (centres unmarked) [Compound 5]	563	–	–
CCCc1nc(NC(=O)c2ccccc2)nc(N2CCOCC2)n1.Cl [Compound 22, N-(4-morpholino-6-propyl-1,3,5-triazin-2-yl)-benzamide hydrochloride]	1091	66.7	–
CCCc1nc(NCC(O)CC)nc(N2CCOCC2)n1 (centres unmarked) [Compound 6]	886	–	–
CCCc1nc(NC(=O)c2ccc(Cl)cc2)nc(N2CCOCC2)n1 [Compound 29]	398	–	–
CCCc1nc(NC(=O)c2ccc(OC)cc2)nc(N2CCOCC2)n1 [Compound 31]	511	–	–
CCCc1nc(NCCOC(=O)Cc2ccccc2)nc(N2CCOCC2)n1 [Compound 40]	1157	–	–
CCCc1nc(N2CCOCC2)nc(N(CCO)Cc2ccccc2)n1 [Compound 14]	> 1073	–	–
CCCc1nc(NCCCO)nc(N2CCOCC2)n1 [Compound 3]	844	–	–
CCCc1nc(NC(CO)(CO)CO)nc(N2CCOCC2)n1 [Compound 12]	982	–	–
CCCc1nc(NO)nc(N2CCOCC2)n1 [Compound 2, 2-(hydroxyamino)-4-morpholino-6-propyl-1,3,5-triazine]	718	–	–
CCCc1nc(N2CCOCC2)nc(N(C)C(=O)c2ccc(OC)cc2)n1 [Compound 32]	1222	–	–
CCCc1nc(N2CCOCC2)nc(N(C)C(=O)c2ccc(C)cc2)n1 [Compound 34]	1174	–	–
CCCc1nc(NN(C)C)nc(N2CCOCC2)n1 [Compound 20, 2-(2,2-dimethylhydrazino)-4-morpholino-6-propyl-1,3,5-triazine]	799	66.7	–
CCCc1nc(NC[C@@H](C)O)nc(N2CCOCC2)n1 [Compound 17]	844	–	–
CCCc1nc(N2CCOCC2)nc(N(C)C(C)=O)n1	947	–	–
CCCc1nc(NC(CO)C(O)c2ccccc2)nc(N2CCOCC2)n1 (centres unmarked) [Compound 15]	1121	–	–
CCCc1nc(NCC(O)CO)nc(N2CCOCC2)n1 (centres unmarked) [Compound 11]	892	–	–
CCCc1nc(NCCOC(N)=O)nc(N2CCOCC2)n1 [Compound 42, 2-[[2-[(Aminocarbonyl)oxy]ethyl]amino]-4-morpholino-6-propyl-1,3,5-triazine]	> 931	–	–
